Source: publication PMC9502701 (Molecules, 2022)

Biological target: neuraminidase (NA) (Influenza A virus, UniProt Q6DPL2)
Type: biochemical
Conditions: for Inhibition Rate (%): 100 μg/mL standard compounds; for IC50: standard compounds

neuraminidase (NA), sequence (Q6DPL2 whole entry, looked up): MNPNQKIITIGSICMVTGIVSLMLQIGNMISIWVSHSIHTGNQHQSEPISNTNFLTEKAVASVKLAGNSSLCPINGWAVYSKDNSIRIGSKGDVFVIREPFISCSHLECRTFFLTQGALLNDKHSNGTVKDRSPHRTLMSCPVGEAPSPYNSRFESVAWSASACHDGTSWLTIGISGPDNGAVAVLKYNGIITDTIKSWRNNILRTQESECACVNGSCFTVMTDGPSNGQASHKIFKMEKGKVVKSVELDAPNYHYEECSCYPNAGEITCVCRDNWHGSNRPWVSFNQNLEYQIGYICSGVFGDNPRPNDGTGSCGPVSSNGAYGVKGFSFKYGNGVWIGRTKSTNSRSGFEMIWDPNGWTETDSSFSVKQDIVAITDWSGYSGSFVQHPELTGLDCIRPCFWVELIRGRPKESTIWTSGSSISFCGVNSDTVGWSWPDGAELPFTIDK

Structure (SMILES)	Inhibition Rate (%)	IC50 [µM]
O=C(/C=C/c1ccc(O)c(O)c1)O[C@@H]1C[C@@](O)(C(=O)O)C[C@@H](O)[C@@H]1O [Neochlorogenic acid, neochlorogenic acid]	76.00	157
O=C(/C=C/c1ccc(O)c(O)c1)O[C@@H]1[C@H](O)C[C@@](O)(C(=O)O)C[C@H]1OC(=O)/C=C/c1ccc(O)c(O)c1 [4,5-Di-O-caffeoylquinic acid]	75.90	132
C=C[C@H]1[C@H](O[C@@H]2O[C@H](CO)[C@@H](O)[C@H](O)[C@H]2O)OC=C(C(=O)OC)[C@H]1CC(=O)O [Secoxyloganin, secoxyloganin]	37.74	–
O=C(/C=C/c1ccc(O)c(O)c1)O[C@H]1[C@H](O)C[C@](O)(C(=O)O)C[C@H]1O [Cryptochlorogenic acid, cryptochlorogenic acid]	54.89	290
